This is an account of results in PubChem BioAssay (NCI).

Structures are written as SMILES.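 48-hour exposure; five concentrations; linearly interpolated endpoints. At the TGI there is no net growth.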

What all share (experiment): inhibition of tumour cell growth, NCI panel, 48 h
Assay [1] has as its system SF-268 CNS.
The subject of assay [2] is NCI-H226 lung.
Assay [3] has as its system UO-31 renal.
Assay [4] deals with MCF7 breast.
The subject of assay [5] is SK-MEL-2 melanoma.
The test system of assay [6] is SN12C renal.
In assay [7] the test system is HOP-62 NSCLC.
The test system of assay [8] is EKVX NSCLC.
Assay [9] relates to SF-539 CNS.

`CC(C)C(CC(=O)OCC(CO)OC(=O)CC(C(C)C)C(C)C)C(C)C` (stereo not given): the TGI in assay [1] stood at 27.6 µM; in [2], 30.1 µM; in assay [3] it was 30.1 µM; in assay [4], 33.5 µM; in [5], 35.2 µM; in [6] it was 28.3 µM. Besides, the TGI was 23 µM in assay [7] and 27 µM in assay [8].

`COc1cc(C(=O)Oc2ccc3c(c2)OCO3)cc(OC)c1OC`: the TGI in assay [1], in assay [2], in assay [3], in assay [4], in assay [5] and in [9] was above 100 µM each time. Also, the TGI in assay [6] and in [7] was above 100 µM in each case.

In the case of `COc1cc(CC(C)NC(C)=O)cc(OC)c1` (stereo not given), the TGI in [1], in assay [2], in [3], in [4], in [5] and in assay [9] was above 100 µM throughout. For the same compound, the TGI in assay [6] and in assay [7] was above 100 µM throughout.

For `COc1ccccc1CN=C1Nc2ccncc2S(=O)(=O)N1c1ccccc1`, the TGI in [2], in assay [3], in assay [4], in [6] and in [8] was above 100 µM throughout.

In the case of `C=C1OC(c2ccccc2NC)=NC12CCCCC2`, the TGI in [1], in assay [2], in assay [3], in assay [4], in assay [9] and in assay [6] was above 100 µM throughout. The TGI in [7] and in assay [8] was above 100 µM in each case.

Turning to `S=C(N/N=C\C(=N/NC(=S)N1CCCCC1)c1ccccc1)N1CCCCC1`, the TGI in [1] is 3.72 µM; in assay [2] it was 3.38 µM; in assay [3], 3.39 µM; in assay [4], above 22.4 µM; in assay [9], 6.7 µM; in assay [6], 3.51 µM. Also, the values for the TGI in assay [7] and in [8] were 5.83 µM and 3.31 µM, respectively.

Turning to `CC(=O)OCC1OC(n2c(-c3ccccc3)c(N=Nc3ccccc3)c(C)c(C#N)c2=S)C(OC(C)=O)C(OC(C)=O)C1OC(C)=O` (stereo not given), the TGI in assay [1], in assay [3], in [4], in assay [5], in assay [9] and in assay [6] was above 100 µM in each case. This compound also had a TGI in assay [7] above 100 µM.

On to `N#C/C(C(=O)Nc1ccc(Cl)cc1)=C(/N)N1CCCC1`, for which the TGI in assay [2], in assay [3], in assay [4], in [5], in assay [9] and in assay [6] was above 100 µM throughout. The TGI in assay [7] and in assay [8] was above 100 µM throughout.

On to `CCP(=O)(OC)C1=CCN(C(=O)OCC[Si](C)(C)C)CC1` (stereo not given), for which the TGI in assay [1], in assay [2], in assay [3], in [4], in assay [5] and in assay [9] was above 100 µM in each case. The TGI in assay [7] and in assay [8] was above 100 µM each time.

In the case of `O=C1N=C2SC(=S)NC(=S)N2NC12c1ccccc1-c1ccccc12`, the TGI in [1], in assay [3], in assay [4], in assay [9], in assay [6] and in [7] was above 10 µM each time. The compound further yielded a TGI in assay [8] above 10 µM.

On to `C1=C2C3=[N+](CCCCC3)CC2Cc2ccsc21` (stereo not given), for which the TGI in [1], in assay [2], in assay [3], in assay [4], in assay [5] and in assay [6] was above 100 µM in each case. In addition, the TGI in assay [7] and in assay [8] was above 100 µM throughout.

For `C/C(Cl)=N\OC(=O)Nc1ccc(C)cc1`, the TGI in assay [1] was 32.9 µM; in assay [3], 31.3 µM; in [4], 25.3 µM; in assay [5] it was 33.1 µM; in [9], 35.8 µM; in assay [6], 33.7 µM. Also, the figures for the TGI in assay [7] and in assay [8] were above 100 µM and 32.3 µM, respectively.

Turning to `CSc1nc(NC(C)C)c2c(n1)Sc1nc3ccccc3n1N=C2`, the TGI in assay [1] is above 100 µM; in assay [2], above 100 µM; in [3] it was 25.6 µM; in [4], 60 µM; in [5], 47.3 µM; in assay [6], 35.4 µM. Moreover, the TGI in [7] was 22.2 µM; in assay [8], above 100 µM.

As for `CN1C(=O)N(C)C(O)C(Cl)(Br)C1=O` (stereo not given), the TGI in assay [1], in assay [2], in assay [3], in [4], in assay [5] and in [9] was above 100 µM in each case. Besides, the TGI in assay [6] and in assay [8] was above 100 µM in each case.

On to `c1cncc(CC2(c3cc4ccccc4[nH]3)OCCO2)c1`, for which the TGI in [1], in [2], in assay [3], in [4], in assay [5] and in assay [9] was above 100 µM each time. The compound further registered a TGI in assay [6] above 100 µM.

Turning to `COC(=O)C1C(C(=O)OC)C2(OC(c3ccc(Cl)cc3)=CC2=O)C12OC(c1ccc(Cl)cc1)=CC2=O` (stereo not given), the TGI in assay [1] was 73.5 µM; in assay [2], above 100 µM; in [3] it was 33.6 µM; in [4], 64.6 µM; in assay [5] it was 55.3 µM; in [9], 39.2 µM. Besides, the TGI in assay [6] was 52.8 µM; in assay [8], 54.9 µM.

Consider `CC1=NN(c2nc(N)nc(-c3sccc3N)n2)C(C)(C)C1`, for which the TGI in assay [1], in [2], in assay [3], in assay [4], in assay [9] and in assay [6] was above 100 µM each time. Moreover, the TGI in assay [7] and in assay [8] was above 100 µM throughout.
